This is an account of results in patent US7611863B2, “Selective staining of biomembranes using voltage-sensitive dyes” (Max-Planck-Gesellschaft zur Foerderung der Wissenschaften …, priority 2004, dated 2009).

In series [1] the test system is HEK 293 cells expressing fusion protein of plasma membrane anchor and PLAP. The series is described as follows: Staining of HEK 293 cells through overexpressed membrane-bound phosphatase. It counts as cell-based.
Text: FIG. 13A to C: Staining of transfected HEK 293 cells with a voltage sensitive dye by activation of binding through an overexpressed, membrane-bound phosphatase. HEK 293 cells were cotransfected with a vector coding for GFP and a vector coding for a fusion protein of a plasma membrane anchor and phosphatase from the human placenta. A. fluorescence image showing the GFP fluoresence of a transfected cell (excitation filter 450/50 nm, emission filter 510 nm longpass; dichroic mirror: 505 nm). B. The voltage sensitive fluorescent dye Di-8-phosphato-ASPBS (cf. FIG. 11, bottom) was added to the incubation medium. […] C. […] The images shown are optimized for contrast and intensity.
(§1) FIG. 16. Genetically Targeted Staining of HEK293 cells with 1 mM Di-10P-ASPBS. A mixture of stable clones either expressing the membrane-bound phosphatase construct or cytosolic GFP were cultured on the same dish. (A) From left to right: (i) Brightfield image of cells. (ii) Fluorescence image of cells showing cells expressing cytosolic GFP (excitation filter 450/50 nm, emission filter 510 nm, dichroic mirror 505 nm). (iii) Cells expressing phosphatase as obtained by subtraction of GFP expressing cells from image i. (iv) Fluorescence image of cells with filters exc. 535/50 nm, em. 610/75 nm; dichroic mirror 535 nm. The image is normalized to the same level as in row B. (v) autoleveled image iv, showing fluorescence crosstalk of GFP. (B) Enzyme induced staining of cells as measured with filter set exc. 535/50 nm, em. 610/75 nm; dichroic mirror 535 nm. The membrane fluorescence increases over time. (C). Inverted and contrast-enhanced fluorescence images corresponding to row B. (D) Difference images. The image A/iv was subtracted from the images in row B. The resulting images were inverted and contrast was enhanced.
as §1, with “17.” for “16.”, “200 nM Di-12P-ASPBS.” for “1 mM Di-10P-ASPBS.”, “difference” for “and contrast-enhanced fluorescence images corresponding to row B. (D) Difference”, “enhanced. (D) Contrast enhanced images of row C.” for “enhanced.”
Enzyme induced staining. The dye precursors Di-10P-ASPBS and Di-12P-ASPBS were used to effect enzyme induced staining on cells. To test whether the staining is selective, a mixture of two cell populations was cultured in the same dish. One of these stably expressed the phosphatase construct, while the other was stably expressing GFP as a negative marker.

A short description of series [2]: Dye-lipid binding by fluorescence lipid titration. The format is physicochemical. The settings on record: for KA/KP ratio of binding constants of alcohol and phosphate: liposome suspensions. How it is done:
Dye-lipid binding. The binding of the dyes to lipid membranes was determined by fluorescence lipid titration^21 with large unilamellar vesicles (LUVs) made of 1-palmitoyl-2-oleoyl-phosphatidylcholine (POPC). The purity of the lipids was checked by 2-dimensional TLC^22. The vesicles were made by extrusion^23 in Tris-NaCl buffer (20 mM Tris, 100 mM NaCl, pH 8.1), using an extrusion apparatus and polycarbonate filters with 100 nm pore size (both Avestin Europe, Mannheim, Germany). Vesicle size was determined by quasielastic light scattering using an argon ion laser (Spectra-Physics, Darmstadt, Germany), a photomultiplier (Brookhaven Instruments, Vienna, Austria) and a correlator (ALV-5000, Langen, Germany). The lipid concentration was determined by a chromogenic enzyme assay (Biomerieux, Marcy I'Etoile, France). The standard deviation of three concentration measurements for every vesicle preparation was always below 4%. Vesicles were stored under argon at 4° C. in 15 ml Falcon Centrifuge Tubes (BD Labware Europe, Le Pont de Claix, France) and used within three days.
To measure dye binding constants, we prepared 1 mM solutions of the dyes 1-3 by ultrasonication in Ethanol (1) or Tris-NaCl buffer (2,3). […] In the same buffer, suspensions of POPC vesicles with concentrations ranging from 100 nM to 10 mM were prepared by dilution of stock solutions. Dye and lipid were pre-thermostatted to 25° C. […] The fluorescence emission recorded at 600 nm with excitation at 488 nm was used for the evaluation of the partition coefficients.
Dye binding to lipid. When styryl hemicyanines bind to lipid bilayers, their quantum yield of fluorescence is enhanced. […] We take advantage of that effect to examine the binding of Di-4-ASPP phosphate and Di-4-ASPP alcohol to lipid membranes by fluorescence titration^21. For comparison Di-4-ASPBS was also included in the investigation.
Dispersions of large lipid vesicles (Ø≈100 nm) were made from palmitoyl-oleoyl-phosphatidylcholine (POPC) with lipid concentrations ranging over five orders of magnitude. […] The fluorescence intensity was enhanced with increasing concentration of lipid for all three dyes. The enhancement was shifted to higher lipid concentrations in the order Di-4-ASPP alcohol, Di-4-ASPBS and Di-4-ASPP phosphate.
Binding. The dyes Di-10-phosphato-ASPBS (Di-10P-ASPBS) and Di-12-phosphato-ASPBS (Di-12P-ASPBS) as well as the corresponding products after enzymatic hydrolysis Di-10-hydroxy-ASPBS (Di-10A-ASPBS) and Di-12-hydroxy-ASPBS (Di-12A-ASPBS) were synthesized by organic chemical methods. Their binding to lipid membranes was tested by fluorescence lipid titration (cf. page 15, section dye binding to lipid). The binding constants amounted to 27 M^−1 (Di-10P-ASPBS), 250,000 M^−1 (Di-10A-ASPBS), 2100 M^−1 (Di-12P-ASPBS) and 3,000,000 M^−1 (Di-12P-ASPBS) (FIGS. 14 and 15 (center and right hand side)). The difference in binding constants between dye alcohol and dye phosphates (or dye precursors) therefore amounted to a factor of 10,000 for the pair Di-10P-ASPBS/Di-10A-ASPBS and to a factor of 1000 for the pair Di-12P-ASPBS/Di-12A-ASPBS. The binding curve for the more lipophilic pair Di-12P-ASPBS/Di-12A-ASPBS is shifted to […] lipid concentrations.

With Di-12-phosphato-ASPBS [Di-12P-ASPBS], in series [1] (HEK293 and MDCK cells overexpressing ArtPlasMA-PLAP, Di-8P, Di-10P, Di-12P compared), the “selectivity of staining among precursor dyes” value is recorded as “best selectivity”. For the same compound, in series [1] (compared with Di-10P-ASPBS), the “staining intensity and confinement to phosphatase expressing cells” value is on record as “distinctly better”. Further, the “enzyme induced membrane staining in mixed cell populations” value in series [1] (phosphatase clones and GFP clones in same dish, 1 mM Di-10P-ASPBS, 200 nM Di-12P-ASPBS) was “allowed enzyme induced membrane staining”. Moreover, the “difference in binding constants between dye alcohol and dye phosphate (precursor)” value in series [2] (pair precursor/product dye) came to 1000 factor.

As to `CCCCN(CCCC)c1ccc(/C=C/c2cc[n+](CCCOP(=O)([O-])O)cc2)cc1` [Di-4-ASPP phosphate], in series [2] (POPC vesicles, Tris-NaCl buffer pH 8.1, 25° C., dye 0.5 μM), the “average binding constant K to lipid membrane” value was determined as 1140 ± 140 M⁻¹. The “KA/KP ratio of binding constants of alcohol and phosphate” value is reported as “≈ 7” in series [2] (dye concentration 9.8 μM) and “≈ 16” in series [2] (low dye concentrations). Besides, in series [2] (−RT ln(K/KA)), the “increment of the binding energy Δ(ΔG) relative to the alcohol” value turned out to be 1.63 kcal/mol.
